Assay results as given in the NIST ThermoML archive (doi:10.1016/j.jct.2017.02.005).
Where “and” joins values, the source holds several entries; their conditions need not be identical. Equal entries are not always repeated.

Settings: Liquid, Ebulliometric method (Recirculating still)

CC(C)O [propan-2-ol]
Settings | vapor or sublimation pressure
317.07 K | 17.46 kPa
317.65 K | 17.98 kPa
318.1 K | 18.39 kPa
318.73 K | 19.01 kPa
319.19 K | 19.48 kPa
319.72 K | 20.03 kPa
320.19 K | 20.52 kPa
320.65 K | 21 kPa
321.11 K | 21.49 kPa
321.58 K | 22.03 kPa
322.07 K | 22.55 kPa
322.47 K | 23.03 kPa
322.91 K | 23.52 kPa
323.32 K | 24.02 kPa
323.71 K | 24.51 kPa
324.13 K | 25.03 kPa
324.49 K | 25.48 kPa
324.94 K | 26.04 kPa
325.3 K | 26.52 kPa
325.72 K | 27.08 kPa
326.18 K | 27.69 kPa
326.53 K | 28.19 kPa
326.99 K | 28.83 kPa
327.46 K | 29.45 kPa
327.86 K | 30.08 kPa
328.47 K | 30.96 kPa
329.06 K | 31.86 kPa
329.64 K | 32.76 kPa
330.26 K | 33.77 kPa
330.73 K | 34.52 kPa
331.32 K | 35.48 kPa
331.83 K | 36.37 kPa
332.44 K | 37.45 kPa
332.99 K | 38.41 kPa
333.5 K | 39.33 kPa
334.1 K | 40.41 kPa
334.6 K | 41.44 kPa
335.12 K | 42.44 kPa
335.64 K | 43.46 kPa
336.11 K | 44.38 kPa
336.55 K | 45.32 kPa
337.07 K | 46.34 kPa
337.5 K | 47.28 kPa
337.98 K | 48.35 kPa
338.45 K | 49.34 kPa
338.86 K | 50.25 kPa
339.3 K | 51.26 kPa
339.72 K | 52.33 kPa
340.04 K | 53.01 kPa
340.43 K | 53.94 kPa
340.89 K | 55.03 kPa
341.25 K | 55.92 kPa
341.69 K | 56.96 kPa
342.09 K | 58.05 kPa
342.48 K | 59.04 kPa
342.82 K | 59.93 kPa
343.2 K | 60.91 kPa
343.59 K | 61.94 kPa
343.96 K | 62.98 kPa
344.32 K | 63.92 kPa
344.68 K | 64.96 kPa
345.05 K | 65.97 kPa
345.35 K | 66.84 kPa
345.75 K | 68.03 kPa
346.13 K | 69.14 kPa
346.46 K | 70.12 kPa
347.11 K | 72.04 kPa
347.79 K | 74.18 kPa
348.37 K | 75.96 kPa
348.95 K | 77.81 kPa
349.61 K | 79.96 kPa
350.08 K | 81.58 kPa
350.75 K | 83.94 kPa
351.21 K | 85.47 kPa
351.69 K | 87.17 kPa
352.09 K | 88.63 kPa
352.54 K | 90.24 kPa
353.16 K | 92.57 kPa
353.66 K | 94.46 kPa
354.2 K | 96.49 kPa
354.59 K | 98.05 kPa
355.09 K | 100 kPa and 100.03 kPa
355.38 K | 101.28 kPa
355.93 K | 103.44 kPa
356.4 K | 105.38 kPa
356.76 K | 106.91 kPa
357.16 K | 108.63 kPa
357.52 K | 110.13 kPa
357.93 K | 111.88 kPa
358.35 K | 113.79 kPa
358.65 K | 115.1 kPa
358.98 K | 116.64 kPa
359.43 K | 118.64 kPa
359.77 K | 120.24 kPa
360.16 K | 122.11 kPa
360.57 K | 124.03 kPa
360.9 K | 125.62 kPa
361.26 K | 127.36 kPa
361.62 K | 129.08 kPa
361.98 K | 130.93 kPa
362.26 K | 132.35 kPa
362.52 K | 133.65 kPa

O [water]
Settings | vapor or sublimation pressure [kPa]
372.81 K | 100
372.84 K | 100
